{"source": "paper PMC12648460", "about": "“Substitution of CH3 by CH2F in 2‐Methylerythritol Cyclodiphosphate Triggers Potent Inhibition of IspG with Concomitant Fluoride Ion Expulsion” (Chemistry (Weinheim an Der Bergstrasse, Germany), 2025)", "type_in_all_cases": "biochemical", "key": {"IspG (GcpE) [1]": {"target": "T1, IspG (GcpE) (Escherichia coli, UniProt P62620)", "T1 construct": "active dimeric form", "T1 sequence (P61949 2-176)": "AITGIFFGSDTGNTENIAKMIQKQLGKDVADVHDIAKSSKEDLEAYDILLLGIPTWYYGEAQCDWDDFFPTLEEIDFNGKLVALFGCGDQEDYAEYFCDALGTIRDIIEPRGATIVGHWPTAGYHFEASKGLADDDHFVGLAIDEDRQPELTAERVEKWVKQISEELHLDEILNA", "T1 sequence (P28861 2-248, further chain)": "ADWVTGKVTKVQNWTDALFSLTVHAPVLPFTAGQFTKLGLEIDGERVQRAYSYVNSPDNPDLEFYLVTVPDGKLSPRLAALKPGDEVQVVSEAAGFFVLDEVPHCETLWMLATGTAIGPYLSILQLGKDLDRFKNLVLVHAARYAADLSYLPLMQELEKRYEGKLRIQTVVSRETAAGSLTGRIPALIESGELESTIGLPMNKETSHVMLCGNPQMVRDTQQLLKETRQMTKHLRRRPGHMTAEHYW", "T1 sequence (P62620 whole entry)": "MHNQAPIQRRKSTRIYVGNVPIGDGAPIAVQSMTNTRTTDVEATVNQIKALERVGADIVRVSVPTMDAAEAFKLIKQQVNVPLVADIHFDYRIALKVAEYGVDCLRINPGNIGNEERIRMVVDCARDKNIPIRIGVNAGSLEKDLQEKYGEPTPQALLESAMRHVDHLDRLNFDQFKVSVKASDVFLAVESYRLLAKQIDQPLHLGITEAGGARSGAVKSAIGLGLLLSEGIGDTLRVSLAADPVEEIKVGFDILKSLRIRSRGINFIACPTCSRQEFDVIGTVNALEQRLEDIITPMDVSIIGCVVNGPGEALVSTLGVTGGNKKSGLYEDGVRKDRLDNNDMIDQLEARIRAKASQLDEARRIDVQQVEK", "test": "anaerobic NADPH consumption assay, preincubation with reduction system"}, "IspG (GcpE) [2]": {"target": "T1, IspG (GcpE)", "test": "anaerobic NADPH consumption assay of purified IspG with […] MEcPP"}, "IspG (GcpE) [3]": {"target": "T1, IspG (GcpE)", "test": "anaerobic NADPH consumption assay ([…] nm), […] min preincubation with reduction system; […]-NMR of fluoride release"}}}
{"smiles": "C=C[C@@]1(CO)OP(=O)(O)OP(=O)(O)OC[C@H]1O", "note": "[VEcPP, 2-C-vinyl-D-erythritol cyclodiphosphate]", "values": [{"measurement": "IC50", "setting": "IspG (GcpE) [1]", "result": "19.5 ± 1.3", "unit": "µM"}]}
{"smiles": "C[C@@]1(CO)OP(=O)(O)OP(=O)(O)OC[C@H]1O", "note": "[compound 1, 2-C-methyl-D-erythritol 2,4-cyclodiphosphate]", "values": [{"measurement": "anaerobic NADPH consumption assay of purified IspG with 250 μM MEcPP", "setting": "IspG (GcpE) [2]", "result": "~ 200 nmol min−1 mg−1"}]}
{"smiles": "O=P1(O)OC[C@@H](O)[C@@](CO)(CF)OP(=O)(O)O1", "note": "[compound 8, monofluoromethyl-D-erythritol cyclodiphosphate]", "values": [{"measurement": "IC50", "setting": "IspG (GcpE) [3]", "result": "10.4 ± 1", "unit": "µM"}]}
